For the assay, the system named is BDF1 mice, P388 leukemia ip, median survival T/C. The assay is described as follows: NCI In Vivo Anticancer Drug Screen. Data for tumor model P388 Leukemia (intraperitoneal) in B6D2F1 (BDF1) mice. As to conditions: endpoint: median survival time, higher = longer survival. In outline: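 Read-out is survival of treated animals expressed relative to the vehicle group, as a T/C ratio.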

Where [1] appears, read: dose: 50.0 mg/kg/injection, schedule: Q01DX009 (ip), vehicle: saline with Tween-80.
The mark [2] stands for this setting: dose: 100.0 mg/kg/injection, schedule: Q01DX009 (ip), vehicle: saline with Tween-80.
The mark [3] stands for this setting: dose: 100.0 mg/kg/injection, schedule: Q04DX003 (ip), vehicle: saline with Tween-80.
[4] abbreviates: dose: 200.0 mg/kg/injection, schedule: Q01DX009 (ip), vehicle: saline with Tween-80.
Where [5] appears, read: dose: 200.0 mg/kg/injection, schedule: Q04DX003 (ip), vehicle: saline with Tween-80.
[6] abbreviates: dose: 50.0 mg/kg/injection, schedule: Q01DX009 (ip), vehicle: saline.
[7] abbreviates: dose: 50.0 mg/kg/injection, schedule: Q04DX003 (ip), vehicle: saline.
[8] abbreviates: dose: 100.0 mg/kg/injection, schedule: Q04DX003 (ip), vehicle: saline.
Setting [9] is: dose: 200.0 mg/kg/injection, schedule: Q04DX003 (ip), vehicle: saline.
Where [10] appears, read: dose: 400.0 mg/kg/injection, schedule: Q04DX003 (ip), vehicle: Klucel (hydroxypropylcellulose) (HPC).

Where “and” joins values, the source holds several entries; their conditions need not be identical. Identical values can stand only once. Inconclusive results and toxic doses are left out.

For the molecule `CC(C)CC1NC(=O)C(Cc2ccc(OCc3ccccc3)cc2)NC1=O` (stereo not drawn), the T/C (dose: 40.0 mg/kg/injection, schedule: Q04DX003 (ip), vehicle: saline with Tween-80) was 95 % of control; the T/C under setting [1] is 101 % of control; the T/C (dose: 66.0 mg/kg/injection, schedule: Q04DX003 (ip), vehicle: saline with Tween-80) was 91 % of control; the T/C under setting [2] is 95 % of control; the T/C under setting [3] was 87 % of control; the T/C (dose: 166.0 mg/kg/injection, schedule: Q04DX003 (ip), vehicle: saline with Tween-80) was 95 % of control. Moreover, the T/C runs as follows: under setting [4], 93 % of control; under setting [5], 111 % of control; (dose: 276.0 mg/kg/injection, schedule: Q04DX003 (ip), vehicle: saline with Tween-80) 91 % of control; (dose: 400.0 mg/kg/injection, schedule: Q01DX009 (ip), vehicle: saline with Tween-80) 96 % of control; (dose: 400.0 mg/kg/injection, schedule: Q04DX003 (ip), vehicle: saline with Tween-80) 111 % of control.
For the molecule `COC1=NCN=C2SC=C(N)N=C12`, the T/C is, setting by setting: (dose: 12.5 mg/kg/injection, schedule: Q01DX009 (ip), vehicle: saline) 100 % of control; (dose: 25.0 mg/kg/injection, schedule: Q01DX009 (ip), vehicle: saline) 98 % of control; under setting [6], 105 % of control.
Consider `O=C1c2c(Cl)cccc2C(c2ccccc2)c2cccc(Cl)c21`, for which the T/C reads like this: under setting [1], 95 % of control; under setting [2], 104 % of control; under setting [4], 97 % of control.
Take `C/C=C1\C(=O)OC23C=CC4C(C(=O)OC)C(O)OC(OC12)C43` (stereo not drawn): the T/C is 95 % of control (dose: 0.04 mg/kg/injection, schedule: Q01DX009 (ip), vehicle: saline); 100 % of control (dose: 0.2 mg/kg/injection, schedule: Q01DX009 (ip), vehicle: saline); 110 % of control (dose: 1.0 mg/kg/injection, schedule: Q01DX009 (ip), vehicle: saline + alcohol).
Regarding `O=C(NC(COC(=O)C(Cc1ccccc1)NC(=O)c1ccccc1)Cc1ccccc1)c1ccccc1` (stereo not drawn), the T/C reads like this: (dose: 4.0 mg/kg/injection, schedule: Q01DX009 (ip), vehicle: Klucel (hydroxypropylcellulose) (HPC)) 102 % of control; (dose: 8.0 mg/kg/injection, schedule: Q01DX009 (ip), vehicle: Klucel (hydroxypropylcellulose) (HPC)) 104 % of control; (dose: 16.0 mg/kg/injection, schedule: Q01DX009 (ip), vehicle: Klucel (hydroxypropylcellulose) (HPC)) 93 % of control; (dose: 32.0 mg/kg/injection, schedule: Q01DX009 (ip), vehicle: Klucel (hydroxypropylcellulose) (HPC)) 98 % of control.
On to `CCN(CC)Cc1nccn1-c1ccc([N+](=O)[O-])cc1C(=O)c1ccccc1Cl`, for which the T/C under setting [6] was 100 % of control and the T/C (dose: 100.0 mg/kg/injection, schedule: Q01DX009 (ip), vehicle: saline) is 118 % of control.
As to `OC1C2CCC(CC2)C1O` (stereo not drawn), the T/C is 100 % of control (dose: 4.5 mg/kg/injection, schedule: Q01DX009 (ip), vehicle: saline with Tween-80); 86 % of control (dose: 9.0 mg/kg/injection, schedule: Q01DX009 (ip), vehicle: saline with Tween-80); 90 % of control (dose: 9.0 mg/kg/injection, schedule: Q04DX003 (ip), vehicle: saline with Tween-80); 90 % of control (dose: 18.0 mg/kg/injection, schedule: Q04DX003 (ip), vehicle: saline with Tween-80).
Take `CCSc1ccc2c(cc1=O)[C@@H](NC1OC(CO)C(O)C(O)C1O)CCc1cc(OC)c(OC)c(OC)c1-2` (stereo partly drawn): the T/C was 106 % of control and 111 % of control (dose: 50.0 mg/kg/injection, schedule: Q01DX009 (ip), vehicle: other); 106 % of control and 115 % of control (dose: 100.0 mg/kg/injection, schedule: Q01DX009 (ip), vehicle: other); 112 % of control (dose: 200.0 mg/kg/injection, schedule: Q01DX009 (ip), vehicle: other).
Turning to `CN1CCC(C(O)c2ccccc2)CC1` (stereo not drawn), the T/C is, setting by setting: (dose: 100.0 mg/kg/injection, schedule: Q01DX001 (ip), vehicle: Klucel (hydroxypropylcellulose) (HPC)) 105 % of control; (dose: 200.0 mg/kg/injection, schedule: Q01DX001 (ip), vehicle: Klucel (hydroxypropylcellulose) (HPC)) 105 % of control.
`CCCCCCCCCCCCCC[N+](C)(C)CCCCCCCCCCCCCC`: the T/C was 120 % of control (dose: 6.25 mg/kg/injection, schedule: Q01DX009 (ip), vehicle: saline); 87 % of control (dose: 16.5 mg/kg/injection, schedule: Q01DX009 (ip), vehicle: saline); 119 % of control (dose: 17.0 mg/kg/injection, schedule: Q01DX009 (ip), vehicle: saline); 118 % of control (dose: 25.0 mg/kg/injection, schedule: Q04DX003 (ip), vehicle: saline); 119 % of control (dose: 37.0 mg/kg/injection, schedule: Q01DX009 (ip), vehicle: saline); 104 % of control under setting [7].
`CCN(CC)CCN1C(=O)c2cccc3cccc(c23)C1=O`: the T/C is, setting by setting: under setting [6], 105 % of control; (dose: 66.0 mg/kg/injection, schedule: Q01DX009 (ip), vehicle: saline) 109 % of control; under setting [8], 110 % of control; (dose: 150.0 mg/kg/injection, schedule: Q01DX009 (ip), vehicle: saline) 172 % of control and 181 % of control; under setting [9], 95 % of control.
For the molecule `O=C(c1ccccc1Cl)c1cccc2ccccc12`, the T/C (dose: 22.0 mg/kg/injection, schedule: Q01DX009 (ip), vehicle: Klucel (hydroxypropylcellulose) (HPC)) was 100 % of control; the T/C (dose: 35.0 mg/kg/injection, schedule: Q01DX009 (ip), vehicle: Klucel (hydroxypropylcellulose) (HPC)) was 100 % of control; the T/C (dose: 175.0 mg/kg/injection, schedule: Q04DX003 (ip), vehicle: Klucel (hydroxypropylcellulose) (HPC)) is 100 % of control; the T/C under setting [10] was 104 % of control; the T/C (dose: 600.0 mg/kg/injection, schedule: Q04DX003 (ip), vehicle: Klucel (hydroxypropylcellulose) (HPC)) is 104 % of control.
Regarding `CC(C)Cn1cnc2c(Sc3c([N+](=O)[O-])ncn3C)nc(N)nc21`, the T/C (dose: 67.0 mg/kg/injection, schedule: Q01DX009 (ip), vehicle: Klucel (hydroxypropylcellulose) (HPC)) is 115 % of control; the T/C (dose: 200.0 mg/kg/injection, schedule: Q01DX009 (ip), vehicle: Klucel (hydroxypropylcellulose) (HPC)) is 91 % of control and 104 % of control; the T/C (dose: 400.0 mg/kg/injection, schedule: Q01DX009 (ip), vehicle: Klucel (hydroxypropylcellulose) (HPC)) is 86 % of control; the T/C under setting [10] was 118 % of control.
Turning to `O=C(O)c1ccc(COc2ccc([N+](=O)[O-])cc2Cl)cc1`, the T/C is 91 % of control under setting [1], 100 % of control under setting [2] and 100 % of control under setting [4].
For the molecule `COc1ccc(CCCC(=O)O)cc1OC`, the T/C under setting [1] is 108 % of control, the T/C under setting [2] was 105 % of control and the T/C under setting [4] was 103 % of control.
For `OCC1=CCCCC1`, in that order: 106 % of control, 98 % of control and 104 % of control.
Turning to `Ic1ncnc2c1ncn2C1CCCCO1` (stereo not drawn), the T/C was 91 % of control (dose: 100.0 mg/kg/injection, schedule: Q04DX003 (ip), vehicle: saline sonified); 91 % of control (dose: 200.0 mg/kg/injection, schedule: Q04DX003 (ip), vehicle: saline sonified); 91 % of control (dose: 400.0 mg/kg/injection, schedule: Q04DX003 (ip), vehicle: saline sonified).
As to `COc1cc2ccc3c(c2cc1OC)CNCC3`, the T/C under setting [7] is 104 % of control, the T/C under setting [8] is 109 % of control and the T/C under setting [9] was 109 % of control.
Take `CC(=O)Nc1nc(Cl)c([N+](=O)[O-])c(SCc2ccccc2)n1`: the T/C (dose: 12.5 mg/kg/injection, schedule: Q01DX009 (ip), vehicle: saline with Tween-80) is 94 % of control; the T/C (dose: 25.0 mg/kg/injection, schedule: Q01DX009 (ip), vehicle: saline with Tween-80) was 98 % of control; the T/C (dose: 25.0 mg/kg/injection, schedule: Q04DX003 (ip), vehicle: saline with Tween-80) was 116 % of control; the T/C under setting [1] was 107 % of control; the T/C (dose: 50.0 mg/kg/injection, schedule: Q04DX003 (ip), vehicle: saline with Tween-80) was 114 % of control; the T/C under setting [2] is 96 % of control. In addition, the T/C runs as follows: under setting [3], 114 % of control; under setting [5], 96 % of control.

These data come from PubChem BioAssay AID328 (DTP/NCI, 2004).
